Reference: patent publication US10441654B2 (priority 2014, dated 2019)
Entries after “also recorded” stand apart in the source; their conditions may differ.

Legend:
EMT6 cells = type: cell-based, mouse
cancer cells [1] = type: cell-based
EMT6 mammary carcinoma = conditions: mouse, in vivo
TNFα [2] = conditions: mouse, in vivo, ip
TNFα [3] = conditions: mouse, in vivo, ip; remark: listed apart in the source
[4] = test system: CT-2A, K1580 glioblastoma cells; type: cell-based, mouse
[5] = mouse, in vivo
[6] = test system: CT-26 mouse colon carcinoma; conditions: in vivo
SNB75 cells = assay: cells; type: cell-based; conditions: Homo sapiens, SNB-75, read-out: EC50 of SMC therapy
[7] = test system: CT-2A intracranial tumors; conditions: mouse, in vivo
IFNβ = type: cell-based
786-0 cells = type: cell-based
[8] = test system: Jak/Stat signalling downstream of IFNβ; type: cell-based
cancer cell lines (n=28) = type: cell-based
TNFα [9] = type: cell-based, mouse
[10] = mouse, in vivo; remark: listed apart in the source
cIAP1/2 = cIAP1/2 knockdown in EMT6 tumors (western blotting); type: in vivo, mouse; conditions: 50 mg/kg oral gavage
VSVΔ51 [11] = conditions: mouse, 50 mg/kg
TRAIL and TNFα = type: cell-based, human
[12] = test system: interferon stimulated gene (ISG) expression; type: cell-based; conditions: cells treated with VSVΔ51 and SMC, 20 hours
VSVΔ51 [13] = type: cell-based
cancer cells [14] = type: cell-based; remark: listed apart in the source

Compound: CC(C)Cn1cnc2c(N)nc3ccccc3c21 [imiquimod]
- bystander death of SMC treated EMT6 cells (EMT6 cells): required splenocytes

Compound: SM-164
- synergy with VSVΔ51 to cause cancer cell death (cancer cells [1]): synergize

Compound: poly(I:C)
- tumor growth (EMT6 mammary carcinoma): no bearing on tumor growth
- TNFα in serum (TNFα [2]): robust expression of TNFα
- TNFα levels from the brain (TNFα [3]): marked up-regulation of TNFα levels
- bystander death of SMC treated EMT6 cells (EMT6 cells): led to EMT6 cell death directly
- glioblastoma cell death by brain lysates of treated mice in the presence of SMCs [4]: enhanced cell death in the presence of SMCs
- toxicity of direct intracranial administration [5]: without overt toxicities

Compound: CN[C@@H](C)C(=O)N[C@H](C(=O)N1CCC[C@H]1c1nc(C(=O)c2ccc(F)cc2)cs1)C1CCCCC1 [LCL161]
- cure rate (EMT6 mammary carcinoma): 17%
- tumor growth and survival (EMT6 mammary carcinoma): decrease in the rate of tumor growth and a modest extension in survival; also recorded: slightly extended mouse survival
- tumor growth rates and survival (EMT6 mammary carcinoma): slightly delayed EMT6 tumor growth rates and slightly extended the survival
- tumor growth rate and survival [6]: modest decrease of the tumor growth rate and a slight extension of survival
- EC50 (SNB75 cells): > 2.5 µM
- neurotoxicity [7]: did not result in any overt neurotoxicity
- IFNβ secretion (IFNβ): slightly lower levels
- cell death outside of the zone of virus infection (786-0 cells): dramatic cell death
- activation of Jak/Stat signalling downstream of IFNβ [8]: do not alter
- cancer cell lines in which SMC treatment enhanced sensitivity to VSVΔ51 (cancer cell lines (n=28)): 54%
- enhanced sensitivity: EC50 of VSVΔ51 upon SMC treatment (cancer cell lines (n=28)): 10-10,000 fold
- synergy with VSVΔ51 to cause cancer cell death (cancer cells [1]): synergize
- cellular production of TNFα upon VSV infection (TNFα [9]): 5- to 7 fold percentage increase
- tolerability [10]: well tolerated
- weight loss ([10]; po, 50 mg/kg): minimal transient weight loss
- duration of cIAP1/2 knockdown in tumors (cIAP1/2): at least 24 hrs
- duration of cIAP1/2 knockdown in tumors, in some cases (cIAP1/2): 48 to 72 h
- viral replication and spread in vivo (VSVΔ51 [11]): No differences in viral kinetics
- induction of TRAIL and TNFα by IFNβ (TRAIL and TNFα): potentiated
- ISG gene expression in response to oncolytic VSV infection [12]: no bearing
- VSVΔ51 infectivity in or spread through tumor cells (VSVΔ51 [13]): does not alter
- growth kinetics of VSVΔ51 (VSVΔ51 [13]): does not affect the growth kinetics

Compound: IFNα
- tumor growth and survival (EMT6 mammary carcinoma): no effect on EMT6 tumor growth or overall survival
- neurotoxicity [7]: did not result in any overt neurotoxicity
- synergy with SMC recapitulated by recombinant cytokine (cancer cells [14]): recapitulated

Compound: IFNγ
- synergy with SMC recapitulated by recombinant cytokine (cancer cells [14]): recapitulated
